Data on three molecules can be found in patent publication EP4737445A1, “NOVEL SATURATED HETEROCYCLE-SUBSTITUTED HETEROARYL-CARBONOHYDRAZONOYL DICYANIDE COMPOUND AND USE THEREOF” (Korea Institute of Science and Technology, priority 2023, dated 2025).

Type in all cases: in vivo
The subject of assay [1] is TauP301L-BiFC Tg mice. The assay can be described thus: Balance beam test in tau transgenic mice. Particulars: oral 10 mg/kg, 5 times per week, 19 weeks, vehicle = 1.5. The procedure:
(§1) Compounds 6, 16, and 20 were orally administered to 8.2-month-old tau transgenic animal model (TauP301L-BiFC tg mouse) 5 times per week at a concentration of 10 mg/kg for a total of 19 weeks (n=10/group). WT mice of similar age to the vehicle-treated group of TauP301L-BiFC mice were used as a control group. Three types of behavioral experiments (Novel Objective Recognition test, Y-maze test, Balance beam test) were performed to confirm the improvement effects on cognitive function and motor function by drug administration, and these experiments and their results were as follows. • (1) Novel Objective Recognition test: To evaluate the object recognition memory ability of mice, two identical objects (Old-Old) were explored for 10 minutes in a 40 cm × 40 cm box. The next day, one object was replaced with a new object (Old-New) and exploration was performed again for 10 minutes, and then the time showing exploratory behavior toward the existing object and the new object was measured. Mice with normal object recognition ability (Recognition index) spent more time exploring the newly changed object, whereas mice with low object recognition ability could not distinguish the new object. The object recognition ability (Recognition index) values were as follows: (RI, Vehicle= 0.48, n.s., #20= 0.59, p<0.05, #6= 0.66, p<0.0001, #16= 0.58, p<0.05). In TauP301L-BiFC mice, the object recognition function improvement effect by drugs #20, #6, and #16 compared to the vehicle group was confirmed. • (2) Y-maze test: A Y-maze test was performed to evaluate the spatial working memory ability of mice. Whether the mice entered the three arms of the Y-maze by spontaneous alternation behavior for a certain period of time was measured through video recording. An increase in the spontaneous alternation ratio was considered as improved working memory ability. […] The time taken to cross a rod with a height of 50 cm and length of 80 cm and the number of times the feet went outside the rod during crossing were measured. […]

Assay [2] has as its target T1, tau (Homo sapiens, UniProt P10636, P618L).
T1 construct: BiFC fluorescent-protein fragments (two complementary halves); from tissue; host or cells: brain of TauP301L-BiFC transgenic mice
Nature of the assay: Total tau immunoblot of RIPA-insoluble brain lysates. Particulars: TauP301L-BiFC mice, compared to vehicle, numbers not readable (formula image). As for the experimental part:
[2] To verify the tau pathology inhibitory efficacy of the drug confirmed through brain tissue imaging via brain lysate immunoblot, brain lysates were separated and purified, and immunoblot using tau antibody was performed in soluble and insoluble fractions. The brain was weighed, and RIPA lysis buffer containing the corresponding dose of protease and phosphatase inhibitors was added to the brain tissue. The tissue was then disrupted using a homogenizer and incubated at 4°C for 2 hours, and then centrifuged at 13,200 rpm at 4°C for 20 minutes. After centrifugation, the supernatant was collected as a RIPA-soluble fraction and stored at -80°C. To prepare the RIPA-insoluble fraction, the remaining pellet was washed once with RIPA lysis buffer containing 1 M sucrose, and then 2% SDS solution (1 mL per 1 g of tissue) was added and incubated at room temperature for 1 hour. Thereafter, the mixture was centrifuged at 13,200 rpm for 1 minute at room temperature, and the supernatant was collected as a RIPA-insoluble fraction and stored at -80°C.
For tau immunoblot analysis, 20 µg of brain tissue RIPA-soluble sample was separated on a 10% SDS-PAGE gel and transferred to a PVDF membrane, and RIPA-insoluble samples were diluted 10-fold in 2% SDS solution and 20 µL of each sample was loaded on an SDS-PAGE gel. The total tau and phosphorylated tau levels were detected by Tau5, which is an anti-tau antibody, and pS199 and pS396, which are anti-phosphorylated tau antibodies. ImageJ software (NIH) was used to quantify band intensity.
The results of total tau immunoblot using RIPA-insoluble brain lysates were as follows: [formula]
(In general: A western blot detects proteins with antibodies after separation by electrophoresis.)

For assay [3], the system named is TauP301L-BiFC Tg mice. Nature of the assay: Y-maze test in tau transgenic mice. The conditions noted are these: oral 10 mg/kg, 5 times per week, 19 weeks, vehicle = 60.7%. As for the experimental part: as §1
The test system of assay [4] is TauP301L-BiFC Tg mice. The assay can be described thus: Novel Objective Recognition test in tau transgenic mice. Particulars: oral 10 mg/kg, 5 times per week, 19 weeks, Vehicle = 0.48. The procedure: as §1
The target in assay [5] is T1, tau. The assay can be described thus: AT8 (pS202/T205) phospho-tau immunofluorescence of brain tissue. Particulars: TauP301L-BiFC mice; oral 10 mg/kg, 19 weeks; vehicle = 100%. The procedure:
After oral administration of Compounds 6, 16, and 20 and completion of behavioral experiments, 13.2-month-old TauP301L-BiFC mice were sacrificed to proceed with brain tissue extraction and [2] brain lysate separation and purification. • [1] First, brain tissue extraction, BiFC fluorescence imaging of brain tissue, and tau phosphorylation antibody immunofluorescence were performed through the following process. TauP301L-BiFC mice were perfused with 0.9% saline and fixed with PBS (pH 7.4) solution containing 4% paraformaldehyde. The brain was extracted and fixed in PBS containing 4% paraformaldehyde at 4°C for 48 to 72 hours. For cryoprotection, the brain was transferred to PBS containing 30% sucrose solution and stored at 4°C until it sank. For frozen sectioning, the brain was immersed in O.C.T (Tissue-TEK) and frozen, and then continuously cut using a brain tissue sectioner. Tissue sections with a thickness of 30 µm were stored in PBS containing 0.05% sodium azide at 4°C.
To measure not only tau oligomer formation but also the degree of tau phosphorylation observed in the tau pathology process, immunofluorescence staining using a tau phosphorylation antibody was performed. For brain tissue immunofluorescence image analysis, brain tissue slices (n=10 per group) were stained with AT8 (pS202/T205) antibody (1:200), and the primary antibody was detected using Alexa Fluor 633-labeled anti-mouse secondary antibody (1:500). Fluorescence images (λex=620-640 nm and λem=650-700 nm) were acquired using Axio Scan.Z1 (ZEISS).
The AT8 fluorescence imaging results of a total of two brain tissue regions (hippocampus (CA1), somatosensory cortex) were as follows: • (1) Hippocampus (CA1), vehicle = 100%, #20= 72%, p<0.01, #6= 81%, p<0.05, #16= 76%, p<0.01. • (2) Sensory cortex (SCTX), vehicle = 100%, #20= 54%, p<0.0001, #6= 63%, p<0.001, #16= 57%, p<0.0001.

T1 sequence (P10636 1-441 isoform P10636-8 P301L): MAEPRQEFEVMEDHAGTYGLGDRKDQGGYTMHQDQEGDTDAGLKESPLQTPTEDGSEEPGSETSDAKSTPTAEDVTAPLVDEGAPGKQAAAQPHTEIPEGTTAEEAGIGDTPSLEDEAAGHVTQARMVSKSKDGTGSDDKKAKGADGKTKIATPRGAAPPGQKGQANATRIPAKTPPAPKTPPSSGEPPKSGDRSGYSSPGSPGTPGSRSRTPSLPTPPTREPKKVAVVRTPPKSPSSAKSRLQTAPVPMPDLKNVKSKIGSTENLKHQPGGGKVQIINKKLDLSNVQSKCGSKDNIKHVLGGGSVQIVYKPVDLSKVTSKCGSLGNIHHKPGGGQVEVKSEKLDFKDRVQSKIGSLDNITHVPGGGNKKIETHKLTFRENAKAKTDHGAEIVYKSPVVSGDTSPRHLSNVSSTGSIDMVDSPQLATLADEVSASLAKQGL

With `Cn1c(N2CCOCC2)nc2cc(NN=C(C#N)C#N)ccc21` [Compound 6, (1-methyl-2-morpholino-1H-benzo[d]imidazol-5-yl)carbonohydrazonoyl dicyanide], in the assay with TauP301L-BiFC Tg mice [1], the “Average number of times feet went outside the rod (n)” value (from here on “Average number”) came out at 1.1. Besides, the “total tau immunoblot, insoluble tau aggregate formation” value (“total tau immunoblot” for short) on tau [2] was “inhibition of insoluble tau aggregate formation”. Further, the “spontaneous alternation ratio (Alteration ratio (%))” value in the assay on TauP301L-BiFC Tg mice [3] is 71.1%. In addition, the “object recognition ability (Recognition index, RI)” value in the assay with TauP301L-BiFC Tg mice [4] is recorded as 0.66. For the same molecule, at tau [5], the “AT8 fluorescence, Hippocampus (CA1)” value turned out to be 81% and the “AT8 fluorescence, Sensory cortex (SCTX)” value worked out at 63%.
For `CC1COCCN1c1nc2ccc(NN=C(C#N)C#N)cc2o1` (stereo not drawn) [Compound 16, (2-(3-methylmorpholino)benzo[d]oxazol-6-yl)carbonohydrazonoyl dicyanide], in the assay with TauP301L-BiFC Tg mice [1], the “Average number” value was found to be 0.8. Further, on tau [2], the “total tau immunoblot” value is recorded as “inhibition of insoluble tau aggregate formation”. The “spontaneous alternation ratio (Alteration ratio (%))” value in the assay on TauP301L-BiFC Tg mice [3] came to 76.4%. In addition, the “object recognition ability (Recognition index, RI)” value in the assay on TauP301L-BiFC Tg mice [4] is 0.58. In addition, at tau [5], the “AT8 fluorescence, Hippocampus (CA1)” value came out at 76% and the “AT8 fluorescence, Sensory cortex (SCTX)” value is 57%.
Regarding `N#CC(C#N)=NNc1ccc2nc(N3C4CCC3COC4)oc2c1` [Compound 20, (2-(3-oxa-8-azabicyclo[3.2.1]octan-8-yl)benzo[d]oxazol-6-yl)carbonohydrazonoyl dicyanide], the “Average number” value in the assay with TauP301L-BiFC Tg mice [1] stood at 0.7. Also, the “total tau immunoblot” value on tau [2] is “inhibition of insoluble tau aggregate formation”. Also, the “spontaneous alternation ratio (Alteration ratio (%))” value in the assay with TauP301L-BiFC Tg mice [3] was 70.8%. In addition, in the assay with TauP301L-BiFC Tg mice [4], the “object recognition ability (Recognition index, RI)” value is given as 0.59. In addition, on tau [5], the “AT8 fluorescence, Hippocampus (CA1)” value was 72% and the “AT8 fluorescence, Sensory cortex (SCTX)” value is recorded as 54%.
